Measured values: US6022857A, “Radiolabeled compounds for thrombus imaging” (Diatide, Inc., priority 1998, dated 2000)
Values joined by “and” are separate entries in the source; they are usually repeats but may differ in a detail not shown here. Equal values may be shown once. Read-outs that look alike come from different tables or passages of the source. Where no end group is shown, it is not given here. The star is where a group is joined. Acm = CC(=O)NC*

Legend:
[1] = tested on: femoral vein thrombus; test: Canine model of DVT: thrombus uptake and imaging of Tc-99m labeled reagent; assay type: in vivo; conditions: approximately 4 h postinjection
Procedure: *ratio of (% injected dose/g in a femoral vein thrombus)/(% injected
dose/g in blood) at approximately 4 h postinjection of each Tc99 m labele
reagent in a canine model of DVT

[2] = tested on: human platelets in platelet-rich plasma; test: Platelet aggregation inhibition assay (ADP-induced, platelet-rich plasma); assay type: cell-based
Procedure: Platelet aggregation studies were performed essentially as described by Zucker (1989, Methods in Enzymol. 169: 117-133). Briefly, platelet aggregation was assayed with or without putative platelet aggregation inhibitory compounds using fresh human platelet-rich plasma, comprising 300,000 platelets per microliter. Platelet aggregation was induced by the addition of a solution of adenosine diphosphate to a final concentration of 10 to 15 micromolar, and the extent of platelet aggregation monitored using a Bio/Data aggregometer (Bio/Data Corp., Horsham, Pa.). The concentrations of platelet aggregation inhibitory compounds used were varied from 0.1 to 500 μg/mL. The concentration of inhibitor that reduced the extent of platelet aggregation by 50% (defined as the IC50) was determined from plots of inhibitor concentration versus extent of platelet aggregation. An inhibition curve for peptide RGDS was determined for each batch of platelets tested.
**concentration of reagent that inhibits by 50% the aggregation of human
platelets in plateletrich plasma induced to aggregate by the addition of
adenosine diphosphate (ADP)

[3] = tested on: deep-vein thrombi; test: Pilot human clinical study: scintigraphic imaging of deep-vein thrombi; assay type: in vivo; conditions: Tc-99m labeled
Procedure: A series of experiments comprising a pilot human clinical study of one embodiment of the scintigraphic imaging agents of the invention, designated P280, having the chemical structure:
were performed. These experiments were performed on 9 human patients (6 males, 3 females), ages 30 to 60 years and weighing 63 to 100 kg. Each of the patients presented clinically with the symptoms of deep-vein thrombosis, and the diagnosis was confirmed by physical work-up, ultrasonography and/or contrast venography.
Each patient in the study was administered 10-22 mCi Tc-99m labeled P280 comprising approximately 0.25 mg peptide, by intravenous injection. Scintigraphic imaging was then performed over four hours using a large field-of-view gamma camera equipped with a high-resolution collimator (photopeaked at 140 keV, with a 20%±window). Gamma camera imaging was commenced simultaneously with injection. Anterior images followed by posterior images over the legs were acquired over the first hour, then at 2 and 4 hours post-injection.

[4] = tested on: femoral vein thrombus; test: Canine model of DVT: thrombus uptake and imaging of Tc-99m labeled reagent; conditions: in vivo canine model system
[5] = human platelet-rich plasma, aggregation induced by ADP, read-out: IC50 (concentration of reagent that inhibits by 50% the aggregation of human platelets)

(CH2 CO--YD ApcGDCGGCAcm GCAcm GGC-amide)2 -(BAT-BS) [Peptide P357]
Clot/Blood: ratio of (% injected dose/g in a femoral vein thrombus)/(% injected dose/g in blood) [1]: 6.3 ± 3.4 | IC50 [2, 5]: 0.079 µM

(CH2 CO--YD ApcGDCGGCAcm GCAcm GGC-amide)3 -TSEA [Peptide P317]
Clot/Blood: ratio of (% injected dose/g in a femoral vein thrombus)/(% injected dose/g in blood) [1]: 3.8 ± 2.2 | IC50 [2, 5]: 0.036 µM

(CH2 CO--YD ApcGDCKGCAcm GCAcm GGC-amide)2 -BSME [Peptide P381]
Clot/Blood: ratio of (% injected dose/g in a femoral vein thrombus)/(% injected dose/g in blood) [1]: 2.5 | IC50 [2, 5]: 0.035 µM

(CH2 CO.YD ApcGDCGGCAcm GCAcm GGC.amide)2 -BSME [Peptide P280]
patients in whom thrombi were visualized ([3]; 9 patients with confirmed DVT): 8 of the 9 | toxicity or other adverse effects ([3]; 10-22 mCi, approximately 0.25 mg peptide i.v., human patients): no toxicity or other adverse effects | time after injection at which thrombus visualization was evident ([3]; human patients with DVT): 15 to 30 min | time post-injection for which thrombus remained visible ([3]; human patients with DVT): 4 to 24 h | scintigraphic images of deep-vein thrombi ([3]; humans in vivo): excellent scintigraphic images | injected dose remaining in the circulation ([3]; intravenous, 1 hour post-injection, human patients): less than 10% | injected dose cleared by the kidneys ([3]; intravenous, human patients): 60-70% | IC50 ([2]; unlabeled reagent, read-out: IC50, platelet aggregation inhibition): 0.087 µM | scintigraphic images of venous thrombi [4]: excellent scintigraphic images

(CH2 COYD.Apc.GDCGGCAcm GCAcm GGCamide)2 (CH2 CO)2 K(Nε-K)GCamide [Peptide P667]
Clot/Blood: ratio of (% injected dose/g in a femoral vein thrombus)/(% injected dose/g in blood) [1]: 5.9 and 5.0 | IC50 [2, 5]: 0.081 µM

AcSYGRGDVRGDFKCAcm GCAcm (SEQ ID NO: 6) (Ac-SYGRGDVRGDFKC(Acm)GC(Acm)) [Peptide P47]
Clot/Blood: ratio of (% injected dose/g in a femoral vein thrombus)/(% injected dose/g in blood) [1]: 1.0 | IC50 [2, 5]: 23 µM

AcSYGRGDVRGDFKCTCCA (SEQ ID NO: 7) (Ac-SYGRGDVRGDFKCTCCA; cysteine pairing not given here) [Peptide P63]
Clot/Blood: ratio of (% injected dose/g in a femoral vein thrombus)/(% injected dose/g in blood) [1]: 1.7 | IC50 [2, 5]: 19 µM

CAcm GCAcm RRRRRRRRRGDV (SEQ ID NO: 5) (C(Acm)GC(Acm)RRRRRRRRRGDV) [Peptide P32]
Clot/Blood: ratio of (% injected dose/g in a femoral vein thrombus)/(% injected dose/g in blood) [1]: 1.2 ± 0.2 | IC50 [2, 5]: 26 µM

CH2 CO--YD ApcGDCGGCAcm GCAcm GGC-amide [Peptide P246]
Clot/Blood: ratio of (% injected dose/g in a femoral vein thrombus)/(% injected dose/g in blood) [1]: 4.4 ± 1.8 | IC50 [2, 5]: 0.85 µM

CH2 CO--YD ApcGDCGGGCAm GCAcm amide [Peptide P154]
Clot/Blood: ratio of (% injected dose/g in a femoral vein thrombus)/(% injected dose/g in blood) [1]: 2.0 ± 0.5 | IC50 [2, 5]: 0.3 µM

CH2 CO--YD RGDCCAcm GCAcm amide [Peptide P81]
Clot/Blood: ratio of (% injected dose/g in a femoral vein thrombus)/(% injected dose/g in blood) [1]: 1.8 ± 0.6 | IC50 [2, 5]: 25 µM

CH2 CO--YD RGDCGGCAcm GCAcm amide [Peptide P143]
Clot/Blood: ratio of (% injected dose/g in a femoral vein thrombus)/(% injected dose/g in blood) [1]: 1.4 | IC50 [2, 5]: 1.3 µM

GRDGVRGDFCAcm GCAcm amide(SEQ ID NO: 8) (GRDGVRGDFC(Acm)GC(Acm)-NH2; N-terminus assumed; SMILES CC(=O)NCSC[C@H](NC(=O)CNC(=O)[C@H](CSCNC(C)=O)NC(=O)[C@H](Cc1ccccc1)NC(=O)[C@H](CC(=O)O)NC(=O)CNC(=O)[C@H](CCCNC(=N)N)NC(=O)[C@@H](NC(=O)CNC(=O)[C@H](CC(=O)O)NC(=O)[C@H](CCCNC(=N)N)NC(=O)CN)C(C)C)C(N)=O) [Peptide P98]
Clot/Blood: ratio of (% injected dose/g in a femoral vein thrombus)/(% injected dose/g in blood) [1]: 1.7 | IC50 [2, 5]: 15 µM

GRGDVRGDFKCAcm GCAcm amide (SEQ ID NO: 3) (GRGDVRGDFKC(Acm)GC(Acm)-NH2; N-terminus assumed; SMILES CC(=O)NCSC[C@H](NC(=O)CNC(=O)[C@H](CSCNC(C)=O)NC(=O)[C@H](CCCCN)NC(=O)[C@H](Cc1ccccc1)NC(=O)[C@H](CC(=O)O)NC(=O)CNC(=O)[C@H](CCCNC(=N)N)NC(=O)[C@@H](NC(=O)[C@H](CC(=O)O)NC(=O)CNC(=O)[C@H](CCCNC(=N)N)NC(=O)CN)C(C)C)C(N)=O) [Peptide P97]
Clot/Blood: ratio of (% injected dose/g in a femoral vein thrombus)/(% injected dose/g in blood) [1]: 1.0 | IC50 [2, 5]: 8 µM
